According to patent US9758445B2, “Preparation of surfactants via cross-metathesis” (MATERIA, INC., priority 2013, dated 2017):
Read-outs that look alike come from different tables or passages of the source.

What was measured:
[1] = Critical Micelle Concentration (CMC) from the electrical conductivity-concentration curve at constant temperature; format: physicochemical
Experimental: The Critical Micelle Concentration (CMC) is defined as the concentration of surfactants above which micelles form and all additional surfactants added to the system go to micelles. The CMC is measured by the electrical conductivity-concentration curve at constant temperature.

[2] = Surface tension above CMC; format: physicochemical
[3] = Krafft Point from the abrupt increase in electrical conductivity as a function of temperature; format: physicochemical
Experimental: Krafft Point or Krafft Temperature is defined as the […]. Surfactants form micelles above their Krafft Point and the solubility in water increases abruptly. The Krafft point was determined by the abrupt increase in the electrical conductivity of as a function of temperature. The intersection of the two solubility lines is the Krafft Point.

[4] = purity 91%; N. M. van Os et al. Tenside Surf. Det. 1992, 29 175; cited from earlier work
[5] = at 20° C.; purity 91%; N. M. van Os et al. Tenside Surf. Det. 1992, 29 175; cited from earlier work
[6] = Surfactant Foaming Test in tap water; format: physicochemical; design: key: A: No Foam Generated; B: Small Volume of Foam Generated; C: Large Volume of Foam Generated; conditions: surfactant 0.023 wt %, tap water 7.0 mL, 23° C., shaken vigorously, foaming recorded after standing 3 minutes
Experimental: To a 20 mL scintillation vial was added surfactant (0.023 wt %) and tap water (7.0 mL, 23° C.). The vial was sealed and the solution was shaken vigorously. The solution was allowed to stand for 3 minutes and foaming was recorded.

Row | Compound | Surface Tension [2] [dynes/cm] | Krafft Point [3] [°C] | Surfactant Foaming Test Results [6] | other results
1 | CCCCCCCCC(C)c1ccc(S(=O)(=O)O)cc1 (stereo not shown) [2-PhC10 LAS, sodium 4-(decan-2-yl)benzenesulfonate] | 43 | 22.5 | – | CMC (mmol/L) at Temp (° C.) ([1]; at 22.0° C.): 4.4 at 22.0 °C mmol/L; Krafft Point [4]: 22.0 °C (NR^2); CMC (mmol/L) at Temp (° C.) [5]: 4.5 at 20 °C mmol/L
2 | CCCCCCCCCC(C)c1ccc(S(=O)(=O)O)cc1 (stereo not shown) [2-PhC11 LAS, sodium 4-(undecan-2-yl)benzenesulfonate] | 43 | 23.0 | – | CMC (mmol/L) at Temp (° C.) ([1]; at 22.0° C.): 1.9 at 22.0 °C mmol/L
3 | CCCCCCCCCCC(C)c1ccc(S(=O)(=O)O)cc1 (stereo not shown) [2-PhC12 LAS, sodium 4-(dodecan-2-yl)benzenesulfonate] | 41 | 22.5 | – | CMC (mmol/L) at Temp (° C.) ([1]; at 22.5° C.): 2.1 at 22.5 °C mmol/L
4 | CCCCCCCCCCCCCCC(C)c1ccc(S(=O)(=O)O)cc1 (stereo not shown) [2-PhC16 LAS, sodium 4-(hexadecan-2-yl)benzenesulfonate] | 44 | 45.0 | – | CMC (mmol/L) at Temp (° C.) ([1]; at 44.0° C.): 1.5 at 44.0 °C mmol/L
5 | CCCCCCCCCCCCC(C)c1ccc(CO)cc1 (stereo not shown) [R=CH2OH; n=11, (4-(Tetradecan-2-yl)phenyl)methanol] | – | – | A | –
6 | CCCCCCCCCCCCCCC(C)c1ccc(CO)cc1 (stereo not shown) [R=CH2OH; n=13, (4-(Hexadecan-2-yl)phenyl)methanol] | – | – | A | –
7 | CCCCCCCCC(C)c1ccccc1 (stereo not shown) [R=H; n=7, 2-Phenyldecane] | – | – | A | –
8 | CCCCCCCCCC(C)c1ccccc1 (stereo not shown) [R=H; n=8, 2-Phenylundecane] | – | – | A | –
9 | CCCCCCCCCCC(C)c1ccccc1 (stereo not shown) [R=H; n=9, 2-Phenyldodecane] | – | – | A | –
10 | CCCCCCCCCCCC(C)c1ccccc1 (stereo not shown) [R=H; n=10, 2-phenyltridecane] | – | – | A | –
11 | CCCCCCCCCCCCC(C)c1ccccc1 (stereo not shown) [R=H; n=11, 2-phenyltetradecane] | – | – | A | –
12 | CCCCCCCCCCCCCCC(C)c1ccccc1 (stereo not shown) [R=H; n=13, 2-Phenylhexadecane] | – | – | A | –
